Numbers after ± are expanded uncertainties.
Tests used:
[1] = excess molar enthalpy (molar enthalpy of mixing); xn = mol fraction of the nth substance listed; details: 298.15 K, 98 kPa, Liquid, Calvet calorimetry
[2] = xn = mol fraction of the nth substance listed; details: 98 kPa, Liquid; for speed of sound: Frequency=3 MHz, Single path-length method; for mass density: Vibrating tube method

Cn1ccnc1 [1-methylimidazole] + CC(C)O
[1]
Details | excess molar enthalpy [kcal/mol]
x1 = 0.0518 | -0.0112 ± 0.000717
x1 = 0.1082 | -0.0304 ± 0.00167
x1 = 0.1974 | -0.0511 ± 0.00263
x1 = 0.2924 | -0.0734 ± 0.00382
x1 = 0.3342 | -0.0793 ± 0.00406
x1 = 0.3969 | -0.0848 ± 0.0043
x1 = 0.4954 | -0.0899 ± 0.00454
x1 = 0.5926 | -0.0846 ± 0.0043
x1 = 0.7041 | -0.0719 ± 0.00359
x1 = 0.798 | -0.0519 ± 0.00263
x1 = 0.8831 | -0.0294 ± 0.00143
x1 = 0.9538 | -0.0143 ± 0.000717
x1 = 1 | 0 ± 0.000239

[2]
Details | mass density, 288.15 K [kg/m3] | mass density, 298.15 K [kg/m3] | mass density, 308.15 K [kg/m3] | mass density, 318.15 K [kg/m3] | mass density, 328.15 K [kg/m3] | speed of sound, 288.15 K [m/s] | speed of sound, 298.15 K [m/s] | speed of sound, 308.15 K [m/s] | speed of sound, 318.15 K [m/s] | speed of sound, 328.15 K [m/s]
x1 = 0.0508 | 803.32 ± 0.81 | 794.92 ± 0.81 | 786.26 ± 0.81 | 777.31 ± 0.81 | 767.99 ± 0.81 | 1199.2 ± 1.1 | 1164 ± 1.1 | 1128.7 ± 1.1 | 1093.2 ± 1.1 | 1057.4 ± 1.1
x1 = 0.1043 | 817.79 ± 0.81 | 809.32 ± 0.81 | 800.63 ± 0.81 | 791.7 ± 0.81 | 782.45 ± 0.81 | 1224.9 ± 1.1 | 1189.6 ± 1.1 | 1154.6 ± 1.1 | 1118.7 ± 1.1 | 1083 ± 1.1
x1 = 0.2003 | 843.18 ± 0.81 | 834.63 ± 0.81 | 825.91 ± 0.81 | 817 ± 0.81 | 807.86 ± 0.81 | 1268.9 ± 1.1 | 1233.4 ± 1.1 | 1197.9 ± 1.1 | 1162.5 ± 1.1 | 1127.2 ± 1.1
x1 = 0.3007 | 869.37 ± 0.81 | 860.76 ± 0.81 | 852.02 ± 0.81 | 843.13 ± 0.81 | 834.07 ± 0.81 | 1313.8 ± 1.1 | 1278.4 ± 1.1 | 1242.9 ± 1.1 | 1207.7 ± 1.1 | 1172.6 ± 1.1
x1 = 0.405 | 896.25 ± 0.81 | 887.59 ± 0.81 | 878.83 ± 0.81 | 869.96 ± 0.81 | 860.95 ± 0.81 | 1360.7 ± 1.2 | 1325.3 ± 1.2 | 1289.7 ± 1.2 | 1254.5 ± 1.2 | 1219.5 ± 1.2
x1 = 0.5046 | 921.64 ± 0.81 | 912.93 ± 0.81 | 904.15 ± 0.81 | 895.28 ± 0.81 | 886.27 ± 0.81 | 1406.8 ± 1.2 | 1371.1 ± 1.2 | 1335.5 ± 1.2 | 1300.1 ± 1.2 | 1265 ± 1.2
x1 = 0.6006 | 945.55 ± 0.81 | 936.79 ± 0.81 | 927.97 ± 0.81 | 919.09 ± 0.81 | 910.11 ± 0.81 | 1451.7 ± 1.2 | 1415.7 ± 1.2 | 1379.6 ± 1.2 | 1344 ± 1.2 | 1308.6 ± 1.2
x1 = 0.7034 | 970.8 ± 0.81 | 962 ± 0.81 | 953.15 ± 0.82 | 944.24 ± 0.82 | 935.27 ± 0.82 | 1500.7 ± 1.3 | 1464.1 ± 1.3 | 1427.7 ± 1.3 | 1391.6 ± 1.3 | 1355.8 ± 1.3
x1 = 0.8029 | 994.49 ± 0.82 | 985.66 ± 0.82 | 976.78 ± 0.82 | 967.86 ± 0.82 | 958.89 ± 0.82 | 1547.2 ± 1.3 | 1510.2 ± 1.3 | 1473.3 ± 1.3 | 1436.7 ± 1.3 | 1400.5 ± 1.3
x1 = 0.9031 | 1017.75 ± 0.83 | 1008.9 ± 0.82 | 1000.03 ± 0.82 | 991.11 ± 0.82 | 982.15 ± 0.82 | 1592.8 ± 1.4 | 1555.5 ± 1.4 | 1518.1 ± 1.4 | 1481.2 ± 1.4 | 1444.6 ± 1.4
x1 = 0.9536 | 1029.16 ± 0.83 | 1020.32 ± 0.83 | 1011.45 ± 0.83 | 1002.55 ± 0.83 | 993.6 ± 0.83 | 1614.9 ± 1.4 | 1577.5 ± 1.4 | 1540 ± 1.4 | 1502.9 ± 1.4 | 1466.2 ± 1.4
x1 = 1 | 1039.36 ± 0.83 | 1030.52 ± 0.83 | 1021.66 ± 0.83 | 1012.76 ± 0.83 | 1003.83 ± 0.83 | 1634.1 ± 1.4 | 1596.5 ± 1.4 | 1559 ± 1.4 | 1521.8 ± 1.4 | 1485 ± 1.4

Cn1ccnc1 [1-methylimidazole] + CCCO
[1]
Details | excess molar enthalpy [kcal/mol]
x1 = 0.05 | -0.032 ± 0.00167
x1 = 0.101 | -0.0624 ± 0.00311
x1 = 0.193 | -0.112 ± 0.00574
x1 = 0.2923 | -0.151 ± 0.00765
x1 = 0.3845 | -0.179 ± 0.00908
x1 = 0.4985 | -0.188 ± 0.00956
x1 = 0.5962 | -0.179 ± 0.00908
x1 = 0.7004 | -0.147 ± 0.00741
x1 = 0.8026 | -0.106 ± 0.00526
x1 = 0.8897 | -0.0564 ± 0.00287
x1 = 0.9463 | -0.0311 ± 0.00167
x1 = 1 | 0 ± 0.000239

[2]
Details | mass density, 288.15 K [kg/m3] | mass density, 298.15 K [kg/m3] | mass density, 308.15 K [kg/m3] | mass density, 318.15 K [kg/m3] | mass density, 328.15 K [kg/m3] | speed of sound, 288.15 K [m/s] | speed of sound, 298.15 K [m/s] | speed of sound, 308.15 K [m/s] | speed of sound, 318.15 K [m/s] | speed of sound, 328.15 K [m/s]
x1 = 0.0507 | 820.94 ± 0.81 | 812.86 ± 0.81 | 804.67 ± 0.81 | 796.32 ± 0.81 | 787.79 ± 0.81 | 1261.9 ± 1 | 1227.2 ± 1 | 1192.8 ± 1 | 1158.7 ± 1 | 1124.9 ± 1
x1 = 0.1042 | 834.73 ± 0.81 | 826.55 ± 0.81 | 818.26 ± 0.81 | 809.85 ± 0.81 | 801.26 ± 0.81 | 1284.5 ± 1.1 | 1249.6 ± 1.1 | 1214.9 ± 1.1 | 1180.6 ± 1.1 | 1146.6 ± 1.1
x1 = 0.2018 | 859.55 ± 0.81 | 851.23 ± 0.81 | 842.82 ± 0.81 | 834.3 ± 0.81 | 825.64 ± 0.81 | 1324.6 ± 1.1 | 1289.5 ± 1.1 | 1254.5 ± 1.1 | 1219.9 ± 1.1 | 1185.7 ± 1.1
x1 = 0.301 | 884.11 ± 0.81 | 875.67 ± 0.81 | 867.16 ± 0.81 | 858.56 ± 0.81 | 849.84 ± 0.81 | 1364.2 ± 1.1 | 1329 ± 1.1 | 1293.8 ± 1.1 | 1259 ± 1.1 | 1224.5 ± 1.1
x1 = 0.4047 | 909.21 ± 0.81 | 900.68 ± 0.81 | 892.08 ± 0.81 | 883.41 ± 0.81 | 874.64 ± 0.81 | 1405.6 ± 1.1 | 1370.1 ± 1.1 | 1334.7 ± 1.1 | 1299.7 ± 1.1 | 1265 ± 1.1
x1 = 0.5076 | 933.32 ± 0.81 | 924.7 ± 0.81 | 916.03 ± 0.81 | 907.3 ± 0.81 | 898.5 ± 0.81 | 1446.2 ± 1.2 | 1410.4 ± 1.2 | 1374.6 ± 1.2 | 1339.2 ± 1.2 | 1304.2 ± 1.2
x1 = 0.6006 | 954.58 ± 0.81 | 945.89 ± 0.81 | 937.17 ± 0.81 | 928.39 ± 0.81 | 919.55 ± 0.81 | 1483.1 ± 1.2 | 1447 ± 1.2 | 1410.8 ± 1.2 | 1375.1 ± 1.2 | 1339.7 ± 1.2
x1 = 0.7029 | 977.37 ± 0.81 | 968.62 ± 0.81 | 959.84 ± 0.81 | 951.01 ± 0.81 | 942.13 ± 0.81 | 1523.8 ± 1.3 | 1487.2 ± 1.3 | 1450.6 ± 1.3 | 1414.4 ± 1.3 | 1378.5 ± 1.3
x1 = 0.8027 | 999.22 ± 0.82 | 990.42 ± 0.82 | 981.59 ± 0.82 | 972.72 ± 0.82 | 963.81 ± 0.82 | 1564.5 ± 1.3 | 1527.3 ± 1.3 | 1490.2 ± 1.3 | 1453.5 ± 1.3 | 1417.2 ± 1.3
x1 = 0.903 | 1020.12 ± 0.82 | 1011.3 ± 0.82 | 1002.44 ± 0.82 | 993.55 ± 0.82 | 984.62 ± 0.82 | 1602 ± 1.4 | 1564.6 ± 1.4 | 1527.1 ± 1.4 | 1490.1 ± 1.4 | 1453.4 ± 1.4
x1 = 0.9532 | 1030.34 ± 0.83 | 1021.51 ± 0.83 | 1012.64 ± 0.83 | 1003.74 ± 0.83 | 994.81 ± 0.82 | 1620.1 ± 1.4 | 1582.6 ± 1.4 | 1545.1 ± 1.4 | 1507.9 ± 1.4 | 1471.1 ± 1.4
x1 = 1 | 1039.36 ± 0.83 | 1030.52 ± 0.83 | 1021.66 ± 0.83 | 1012.76 ± 0.83 | 1003.83 ± 0.83 | 1634.1 ± 1.4 | 1596.5 ± 1.4 | 1559 ± 1.4 | 1521.8 ± 1.4 | 1485 ± 1.4
